US20220071891A1, “Extract of Chlamydomonas Acidophila, Method for Preparing Same and Cosmetic Compositions and Dermatological Compositions Comprising Same” (Laboratoires Expanscience, priority 2018, published 2022)

Assays:
[1] = test system: epidermal keratinocytes subjected to Th2 stress; assay: qRT-PCR gene expression in keratinocytes subjected to Th2 stress; type: cell-based, human; conditions: 10 μM, 24 h preincubation, Th2 cytokine cocktail 24 h; control = 100
Protocol: (§1) The potential anti-allergic effects of the Chlamydomonas acidophila extract were investigated on: • Gene expression of pro-inflammatory chemokines in normal human epidermal keratinocytes (NHEK) stimulated by a mixture of Th2 cytokines (IL-4+IL-13+IL-22+TNF-α) mimicking a late-phase “atopic dermatitis” type phenotype (chronic inflammation). • Activation of human basophils induced by fMLP. This activation was measured using a specific kit and flow cytometry analysis by quantifying a specific marker of activated basophil cells (CD63) in the total population of basophils identified by expression of the CCR3 marker. In parallel, activation with the anti-FCεRI antibody was performed as a positive control.
Normal human epidermal keratinocytes were preincubated for 24 hours in the presence of the CAP extract at 0.01% dry matter (DM) or reference JAK inhibitor I at 10 μM. After preincubation, the cells were retreated with the CAP extract or reference and then the cells were stimulated with a Th2 cytokine cocktail (IL4+1L13+1L22+TNFα at 10 ng/ml) for 24 hours.
At the end of incubation, gene expression of markers of interest was assessed by qRT-PCR.

[2] = test system: keratinocytes treated with hydrogen peroxide (H2O2); assay: ROS production (DCFH-DA) in keratinocytes treated with H2O2; type: cell-based, human; conditions: 24 h preincubation, 100 μM H2O2 20 minutes
Text: The evaluation of the antioxidant effect of the active agent is done through the incorporation of DCFH-DA (2′,7′-dichlorofluorescin diacetate) into cultured keratinocytes. This molecule is a non-fluorescent marker in the non-oxidized state. Under oxidizing conditions (here H2O2 stress), DCFH-DA will be degraded to DCF, a molecule that will emit fluorescence. The fluorescence measured will be proportional to the amount of reactive oxygen species produced by the cell in the presence of H2O2 and/or the extract. Normal human epidermal keratinocytes were preincubated for 24 hours in the presence of the CAP extract at 0.0001% dry matter, quercetin at 10 μM or vitamin C at 500 μM (the latter two molecules serving as antioxidant reference). The cells are then treated for 1 h in the presence of 0.5 mM DCFH-DA. Oxidation is induced by adding 100 μM H2O2 for 20 minutes. A second treatment with the tested products is performed simultaneously with H2O2 stress (at the same concentrations as the pretreatment). Finally, a measurement of the fluorescence density (DFU) corresponding to the amount of ROS is performed using a microplate reader. The significance of the results was checked by a one-way ANOVA followed by a Tuckey test (GraphPad Prism software version 5.02, GraphPad Software, San Diego Calif. USA).

human basophils = assay: Basophil activation test (Flow CAST), fMLP-stimulated; type: cell-based; conditions: whole blood, 1 μM fMLP
Protocol: as §1
The basophil activation test (BAT) was performed using the Flow CAST® kit (BUHLMANN, item code FKCCR).
Whole blood was preincubated for 15 minutes in the presence of the CAP extract at 0.033% and 0.1% dry matter (DM) or the references (SB202190 at 30 μM; or cromoglycate at 10 mM).
The stimulant, 1 μM fMLP, was then added and the blood was incubated for an additional 15 minutes in the presence of the labeling buffer containing a mixture of monoclonal antibodies (anti-CD63-FITC and anti-CCR3-PE).
Flow cytometry analysis was then performed to count the total population of basophils (CCR3+) and activated basophils (CCR3+/CD63+).

[3] = test system: normal human keratinocytes stimulated with PMA; assay: TNF-alpha assay in keratinocytes stimulated with PMA; type: cell-based; conditions: 0.1 μM, 24 h pretreatment; for TNF-alpha, change vs PMA: then 10 μg/ml PMA; for TNF-alpha, mean: then 10 μg/ml PMA overnight
Protocol: (§2) The anti-inflammatory activity of the Chlamydomonas acidophila extract according to the invention was evaluated on a model of inflammation induced on keratinocytes by PMA (phorbol 12-myristate 13-acetate) treatment. The release of the cytokines TNFα and prostaglandin E2 (PGE2) was analyzed.
(§3) Normal human epidermal keratinocytes were pretreated for 24 h with the Chlamydomonas acidophila (CAP) extract according to Example 1, at concentrations comprised between 0.0001% and 0.05% dry matter, or with the anti-inflammatory reference molecules dexamethasone at 0.1 μM or indomethacin at 0.1 μM (the latter two references serving as anti-inflammatory references for cytokines and prostaglandins, respectively).
(§4) Inflammation was then induced by addition of PMA at 10 μg/mL overnight.
(§5) A TNFα and PGE2 assay was then performed in the cell culture supernatants.
(§6) The significance of the results was checked by a one-way ANOVA followed by a Tuckey test (GraphPad Prism software version 5.02, GraphPad Software, San Diego Calif. USA).

[4] = test system: normal human keratinocytes stimulated with PMA; assay: PGE2 assay in keratinocytes stimulated with PMA; type: cell-based; conditions: 0.1 μM, 24 h pretreatment; for PGE2, change vs PMA: then 10 μg/ml PMA; for PGE2, mean: then 10 μg/ml PMA overnight
Protocol: as §2, §3, §4, §5, §6

[5] = test system: NiSO4-stimulated normal human keratinocytes; assay: IL8 assay in NiSO4-stimulated keratinocytes; type: cell-based; conditions: 1 μM, 24 h pretreatment, then 10 μM NiSO4 24 h
Protocol: Normal human epidermal keratinocytes were pretreated for 24 hours with CAP extract at 0.01% and 0.05% dry matter or with the anti-inflammatory reference molecule dexamethasone at 1 μM. The keratinocytes were then treated for 24 hours with nickel: NiSO4 at 10 μM. At the end of the incubation, the amount of IL8 produced by the cells was assessed by ELISA in the supernatants.
The concentration of IL8 assayed was normalized to the amount of total intracellular protein assessed by BC Assay.
Significance of results was statistically analyzed by a Student's t-test.

[6] = test system: cadmium-stimulated normal human keratinocytes; assay: PGE2 assay in cadmium-stimulated keratinocytes; type: cell-based; conditions: 0.1 μM, 24 h pretreatment, then 100 μM CdCl2 48 h
Protocol: Normal human epidermal keratinocytes were pretreated for 24 hours with the CAP extract at 0.001% and 0.01% dry matter or with the anti-inflammatory reference molecule indomethacin at […]. The keratinocytes were then treated for 48 hours with cadmium: CdCl2 at 100 μM. At the end of the incubation, the amount of PGE2 produced by the cells was assessed by ELISA in the supernatants. The concentration of PGE2 assayed was normalized to the amount of total intracellular protein assessed by BC Assay.

CC(C)(C)c1nc2c3cc[nH]c(=O)c3c3cc(F)ccc3c2[nH]1 [JAK inhibitor]
CCL5 Relative expression (%) [1]: 101% | CCL27 Relative expression (%) [1]: 1436%

O=c1c(O)c(-c2ccc(O)c(O)c2)oc2cc(O)cc(O)c12 [Quercetin, quercetin]
ROS, change vs H2O2 ([2]; 10 μM): −92% vs H2O2 | ROS, mean ([2]; 10 μM): 7787.00 fluorescence units

Oc1ccc(-c2nc(-c3ccncc3)c(-c3ccc(F)cc3)[nH]2)cc1 [SB202190]
% of activated basophils (CCR3+/CD63+), mean (human basophils; 30 μM): 30.4%

O=C1O[C@H]([C@@H](O)CO)C(O)=C1O [Vitamin C, vitamin C]
ROS, change vs H2O2 ([2]; 500 μM): −89% vs H2O2 | ROS, mean ([2]; 500 μM): 10932.50 fluorescence units

O=C(O)c1cc(=O)c2c(OCC(O)COc3cccc4oc(C(=O)O)cc(=O)c34)cccc2o1 [cromoglycate]
% of activated basophils (CCR3+/CD63+), mean (human basophils; 10 μM (table; text 10 mM)): 22.3%

C[C@@H]1C[C@H]2[C@@H]3CCC4=CC(=O)C=C[C@]4(C)[C@@]3(F)[C@@H](O)C[C@]2(C)[C@@]1(O)C(=O)CO [dexamethasone]
TNF-alpha, change vs PMA [3]: −56% vs PMA | TNF-alpha, mean [3]: 126.112 pg/mL | PGE2, change vs PMA [4]: −22% vs PMA | PGE2, mean [4]: 985.126 pg/mL | IL8, change vs Ni [5]: −63% vs Ni | IL8, mean [5]: 1685 pg/ml/mg protein

COc1ccc2c(c1)c(CC(=O)O)c(C)n2C(=O)c1ccc(Cl)cc1 [indomethacin]
TNF-alpha, change vs PMA [3]: −60% | TNF-alpha, mean [3]: 113.266 pg/mL | PGE2, change vs PMA [4]: −87% vs PMA | PGE2, mean [4]: 163.031 pg/mL | PGE2, change vs Cd [6]: −54% vs Cd | PGE2, mean [6]: 3.874 pg/μg of protein
